Results on three molecules are retold here after publication PMC11413853, “Discovery of VU6007496: Challenges in the Development of an M1 Positive Allosteric Modulator Backup Candidate” (ACS Chemical Neuroscience, 2024).

For one data set, the system named is hM2-5. Kind of data set: Muscarinic selectivity, human M2-5. The data set is classed as cell-based. The method, then:
Procedures for Biological Experiments
Calcium mobilization assays:
All functional cell-based assays were performed in stable Chinese Hamster Ovary (CHO) cell lines constitutively expressing human M5 or human M1 receptors. For full muscarinic selectivity, CHO cells expressing human M3, human M2 plus Gqi5 or human M4 plus Gqi5 were used. Cells were plated at 15,000 cells per 20 µL per well in black 384-well, TC-treated, clear-bottomed plates (Greiner) in Ham’s F12 medium supplemented with 10% FBS and 20 mM HEPES. Cells were incubated overnight at 37 °C under 5% CO2. The following day, the medium was removed and replaced with 1.2 µM Fluo-4 AM (Invitrogen) in assay buffer (Hank’s Balanced Salt Solution supplemented with 20 mM HEPES and 2.5 mM Probenecid, pH 7.4) and the cells were incubated for 50 minutes at 37 °C under 5% CO2. Dye was then removed and replaced with 20 µL of fresh assay buffer. Test compounds at a 10 mM concentration in DMSO were serially diluted in DMSO (either 1:3 or 1:5 dilution) to create a 10-point concentration series. The DMSO solutions were then diluted in assay buffer resulting in compound solutions at 2-times the final assay concentration with the highest assay concentration of 30 µM. The compound plate, cell plate, and plates containing EC20 and EC80 acetylcholine concentrations were placed in a Hamamatsu FDSS 6000 or 7000 kinetic imaging plate reader equipped to measure Ex480/Em540 fluorescence. Data were collected at 1 frame per second. After 2 seconds of collecting baseline fluorescence, 20 µL of the compound solutions were added to the cell plate. This was followed by the addition of an EC20 concentration of acetylcholine at 142 seconds. […] The fluorescence signal was collected for a total of 300 seconds. […] Data were imported and analyzed in Dotmatics Informatics software. by normalizing all data in the individual kinetic traces to the initial fluorescence read. The magnitude of each agonist addition was then determined and normalized to the average maximum response. […] The IC50 determined using the EC80 of acetylcholine is the value reported. […]

A further data set relates to rM2-5. Description: Muscarinic selectivity, rat M2-5. The data set is classed as cell-based.
Data set [1] can be described thus: Predicted hepatic clearance, human hepatic microsomes. Format: in vitro ADME. The method, then: Intrinsic clearance: Human or rat hepatic microsomes (0.5 mg/mL) and 1 µM test compound were incubated in 100 mM potassium phosphate pH 7.4 buffer with 3 mM MgCl2 at 37 °C with constant shaking. After a 5 min preincubation, the reaction was initiated by the addition of NADPH (1 mM). At selected time intervals (0, 3, 7, 15, 25, and 45 min), aliquots were taken and subsequently placed into a 96-well plate containing cold acetonitrile with internal standard (50 ng/mL carbamazepine). Plates were then centrifuged at 3000 rcf (4 °C) for 10 min, and the supernatant was transferred to a separate 96-well plate and diluted 1:1 with water for LC/MS/MS analysis. The in vitro half-life ( 1/2, min, Eq. 1), intrinsic clearance (CLint, mL/min/kg, Eq. 2), and subsequent predicted hepatic clearance (CLhep, mL/min/kg, Eq. 3) was determined employing the […]
where k represents the slope from linear regression analysis of the natural log percent remaining of a test compound as a function of incubation time […]
(2) CLint = in vitroT1/2 x mg microsomes x gram liver x kg body wt ascale-up factors: of 20 (human) or 45 (rat) […]
where Qh (hepatic blood flow, mL/min/kg) is 21 (human) or 70 (rat).
LC/MS/MS Bioanalysis of Samples from Plasma Protein Binding and Intrinsic Clearance […]
Samples were analyzed on a Thermo Electron TSQ Quantum Ultra triple quad mass spectrometer (San Jose, CA) via electrospray ionization (ESI) with two Themo Electron Accella pumps (San Jose, CA), and a Leap Technologies CTC PAL autosampler (Carrboro, NC). Analytes were separated by gradient elution on a dual column system with two Thermo Hypersil Gold (2.1 x 30 mm, 1.9 µm) columns (San Jose, CA) thermostated at 40 °C. HPLC mobile phase A was 0.1% formic acid in water and mobile phase B was 0.1% formic acid in acetonitrile. The gradient started […]
for 0.2 min; returned to 10% B in 0.1 min. The total run time was 1.3 min and the HPLC flow rate was 0.8 mL/min. […]

The next data set has as its target T1, CYP1A2 (Homo sapiens, UniProt P05177).
T1 sequence (P05177 1-516): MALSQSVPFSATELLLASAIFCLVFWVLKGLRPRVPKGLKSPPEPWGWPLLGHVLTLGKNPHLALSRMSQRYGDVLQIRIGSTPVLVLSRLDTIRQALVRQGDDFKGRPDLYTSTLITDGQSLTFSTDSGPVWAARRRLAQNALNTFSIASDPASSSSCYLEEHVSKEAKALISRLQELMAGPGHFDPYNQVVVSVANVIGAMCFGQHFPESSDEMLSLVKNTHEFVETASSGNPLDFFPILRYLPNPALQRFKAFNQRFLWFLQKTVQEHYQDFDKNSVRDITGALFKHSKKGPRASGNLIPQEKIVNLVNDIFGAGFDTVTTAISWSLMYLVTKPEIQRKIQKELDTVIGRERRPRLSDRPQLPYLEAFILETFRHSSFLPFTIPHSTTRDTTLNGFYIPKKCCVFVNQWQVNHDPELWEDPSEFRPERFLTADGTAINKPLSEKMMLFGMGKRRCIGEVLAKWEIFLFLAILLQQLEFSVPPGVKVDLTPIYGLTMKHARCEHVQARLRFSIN
Kind of data set: CYP inhibition, 1A2. Format: in vitro ADME.

In the next data set the target is CYP3A4 (Homo sapiens, UniProt P08684). Description: CYP inhibition, 3A4. The data set is classed as in vitro ADME.
Sequence of CYP3A4 (P08684 whole entry): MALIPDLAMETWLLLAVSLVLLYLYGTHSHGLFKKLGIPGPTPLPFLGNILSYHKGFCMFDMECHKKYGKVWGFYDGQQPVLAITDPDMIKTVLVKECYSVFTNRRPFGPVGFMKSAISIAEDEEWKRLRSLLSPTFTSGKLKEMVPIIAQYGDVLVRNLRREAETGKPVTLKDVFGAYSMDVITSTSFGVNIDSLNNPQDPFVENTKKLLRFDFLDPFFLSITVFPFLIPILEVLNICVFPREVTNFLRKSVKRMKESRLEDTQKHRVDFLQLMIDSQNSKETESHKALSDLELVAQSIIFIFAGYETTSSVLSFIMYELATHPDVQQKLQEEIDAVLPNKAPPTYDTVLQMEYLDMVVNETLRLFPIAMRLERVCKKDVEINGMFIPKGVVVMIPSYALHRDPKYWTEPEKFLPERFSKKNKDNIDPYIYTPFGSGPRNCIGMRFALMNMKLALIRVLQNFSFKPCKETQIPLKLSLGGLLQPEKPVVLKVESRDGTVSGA

Bounds are passed on as bounds.

As a reminder, the EC50 is the concentration needed to bring the measured effect to its halfway point. High values mean weaker potency, low ones greater potency. As usually defined, the IC50 is the midpoint of a concentration-inhibition curve. Higher therefore signals lower potency. `Cn1ccc(-c2ccc(Cc3cc(C(=O)NC4CCOCC4)nc4ccn(C)c34)cc2)n1` [compound 11]: the EC50 in the data set on hM2-5 and in the data set on rM2-5 was above 30 µM in each case. In addition, in data set [1], the “Predicted CLhep, human” value is 12 mL/min/kg. In addition, the IC50 against CYP1A2 and at CYP3A4 was above 30 µM throughout.
With `Cn1ccc(-c2ccc(Cc3cc(C(=O)NC4CCOCC4)nc4ccsc34)cc2)n1` [compound 12], the EC50 in the data set on hM2-5 and with rM2-5 was above 30 µM each time. Moreover, in data set [1], the “Predicted CLhep, human” value is given as 7.5 mL/min/kg. Moreover, the 50% inhibitory concentration (IC50) against CYP1A2 and against CYP3A4 was above 30 µM in each case.
With `Cn1ccc2nc(C(=O)NC3CCOCC3)cc(Cc3ccc(-c4cc[nH]n4)cc3)c21` [compound 24], the “activity on human M2–5” value in the data set on hM2-5 is “inactive”. For the same molecule, the “activity on rat M2–5” value in the data set with rM2-5 was “inactive”. In addition, the “Predicted CLhep, human” value in data set [1] is listed as 12.8 mL/min/kg. Also, the results for the IC50 at CYP1A2 and against CYP3A4 were above 30 µM and 5.7 µM, respectively.
